For test [1], the system named is PBMC and endothelial cell co-culture. Kind of test: SAg system: PBMC and endothelial cell co-culture stimulated with superantigen. The format is cell-based, human.
Test [2] concerns primary human endothelial cells (EC). Description: 3C system: endothelial cells stimulated with IL-1β, TNF-α and IFN-γ, readout parameters by cell-based ELISA. To be noted: 24 hr cytokine activation; non-toxic concentrations. The method, then: Cell culture. Human umbilical vein endothelial cells (HUVEC) were obtained from Cascade Biologics (Portland, Oreg.) and cultured in EGM-2 medium containing supplements provided by the manufacturer and 2% heat inactivated fetal bovine serum (Hyclone, Logan, Utah) and subcultured with 0.05% trypsin-0.53 mM EDTA (Mediatech, Herndon, Va.) as described by the manufacturer. […] Experiments were performed by culturing HUVEC in microtiter plates (Falcon; BD Biosciences), in the presence of cytokines (IL-1β, 1 ng/ml; TNF-α, 5 ng/ml; and IFN-γ, 100 ng/ml), activators (SAg, 20 ng/ml or LPS, 0.2 ng/ml), and/or PBMC (7.5×10^4) for the indicated times. Drugs were added 1 hr before stimulation and were present during the whole 24 hr stimulation period.
Cell-based ELISAs. […] Briefly, microtiter plates containing treated and stimulated HUVEC (or HUVEC/PBMC) were blocked, and then incubated with primary antibodies or isotype control antibodies (0.01-0.5 μg/ml) for 1 hr. […] Plates were washed and developed with TMB substrate (Clinical Science Products, Mansfield, Mass.) and the absorbance (OD) was read at 450 nm (subtracting the background absorbance at 650 nm) with a Molecular Devices SpectraMAX 190 plate reader (Molecular Devices, Sunnyvale, Calif.).
Data analysis. Mean OD values for each parameter were calculated from triplicate samples per experiment. […]

Where [3] appears, read: 24 hr SAg stimulation, non-toxic concentrations.

Like-named read-outs stand apart in the source and are kept apart here.

As to `CC(C)N(CCC(=O)c1ccc2ccccc2c1)Cc1ccccc1` [ZM39923], in test [1] (setting [3]), the “activity in the SAg system” value is given as “active”.

Turning to `Nc1nccc(-c2c(-c3ccc(F)cc3)ncn2C2CCNCC2)n1` [SB220025], in test [1] (setting [3]), the “activity in the SAg system” value was “retain activity”.

For the molecule `CCCCOc1cc(CC2CNC(=O)N2)ccc1OC` (stereo not drawn) [Ro-20-1274], the “activity in the SAg system” value in test [1] (setting [3]) is on record as “active”.

Regarding `CC(C)(C)n1nc(-c2ccc(Cl)cc2)c2c(N)ncnc21` [PP2], in test [1], the “activity in the SAg system” value is on record as “active”.

As for `CO[C@H]1C[C@@H]2CC[C@@H](C)[C@@](O)(O2)C(=O)C(=O)N2CCCC[C@H]2C(=O)O[C@H]([C@H](C)C[C@@H]2CC[C@@H](O)[C@H](OC)C2)CC(=O)[C@H](C)/C=C(\C)[C@@H](O)[C@@H](OC)C(=O)[C@H](C)C[C@H](C)/C=C/C=C/C=C/1C` [rapamycin], the “activity in the SAg system” value in test [1] (setting [3]) is on record as “active”.

Take `COc1cc2ncnc(Nc3ccc(O)cc3)c2cc1OC` [WHI-P131]: in test [1] (setting [3]), the “activity in the SAg system” value is on record as “active”.

In the case of “IL-1 receptor antagonist: Recombinant human IL-1ra”, the “activity in the SAg system” value in test [1] is recorded as “detects inhibition”.

As for `Cc1ccc(-c2nn(C(C)(C)C)c3ncnc(N)c23)cc1` [PP1], the “activity in the SAg system” value in test [1] is “active”.

For `O=c1cc(-c2ccc(O)cc2)oc2cc(O)cc(O)c12` [apigenin], in test [2], the “activity in the 3C (endothelial inflammation) system” value is given as “induces a characteristic response profile”.

`COc1cccc(-c2cc(=O)c3ccccc3o2)c1N` [PD098059]: the “activity in the 3C (endothelial inflammation) system” value in test [2] is on record as “induces a characteristic response profile”.

Take `COc1ccc(C2CNC(=O)C2)cc1OC1CCCC1` (stereo not drawn) [rolipram]: in test [1] (setting [3]), the “activity in the SAg system” value is reported as “active”.

B1: IL-10: Recombinant human IL-10 (protein, UniProt P22301 19-178, looked up)
Interleukin-10: SPGQGTQSENSCTHFPGNLPNMLRDLRDAFSRVKTFFQMKDQLDNLLLKESLLEDFKGYLGCQALSEMIQFYLEEVMPQAENQDPDIKAHVNSLGENLKTLRLRLRRCHRFLPCENKSKAVEQVKNAFNKLQEKGIYKAMSEFDIFINYIEAYMTMKIRN
On to B1, for which, in test [1], the “activity in the SAg system” value is listed as “active”.

Values taken from US20070072246A1, “Cell-based assays for determining drug action” (priority 2003, published 2007).
